Measurements from US9688695B2, “Imidazothiadiazole and imidazopyrazine derivatives as protease activated receptor 4 (PAR4) inhibitors for treating platelet aggregation” (BRISTOL-MYERS SQUIBB COMPANY, priority 2012, dated 2017).

Columns and labels:
PAR4 [1] = target: T1, PAR4 (Homo sapiens (Human), UniProt Q96RI0); experiment: FLIPR assay in PAR4-expressing HEK293 cells (PAR4 antagonist activity, calcium mobilization); assay type: cell-based; details: H-Ala-Phe(4-F)-Pro-Gly-Trp-Leu-Val-Lys-Asn-Gly-NH2-induced calcium mobilization
Summary of the method: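 HEK293 EBNA cells stably expressing human PAR4 (also endogenous PAR1) preincubated 30 min at room temperature with compound in HBSS/10 mM HEPES, 0.67% DMSO final. PAR4 agonist peptide then added and intracellular calcium mobilization monitored by fluorescence.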

PAR4 [2] = target: T1, PAR4; experiment: Gamma thrombin induced platelet aggregation assay (PRP assay); assay type: cell-based; details: human platelet rich plasma, 96-well microplate
Description: Platelet aggregation can be monitored in a 96-well microplate aggregation assay format or using standard platelet aggregometer.
The platelet rich plasma was isolated by centrifugation at 170 g for 14 minutes.
The ability of the compounds of the current invention to inhibit platelet aggregation induced by gamma-thrombin was tested in a 96-well microplate aggregation assay format. Briefly, PRP or washed platelet suspension (100 μl) was pre-incubated for 5 minutes at room temperature with varying concentrations of compounds. Aggregation was initiated by ˜10-50 nM gamma thrombin (Haematologic Technologies, Essex Junction, Vt.), which was titrated daily to achieve 80% platelet aggregation. Refludan at 1 U/mL (Berlex, Montville, N.J.) was added to the gamma thrombin sample to prevent PAR1 activation induced by residual alpha-thrombin contamination. The plate was then placed into a 37° C. Molecular Devices (Sunnyvale, Calif.) SPECTRAMAX® Plus Plate Reader. […] The plate also included an untreated control sample which served as ODmax, while buffer containing no platelets was the ODmin. Platelet aggregation was determined by subtracting the ODmax from the ODmin for the 100% aggregation value. In experimental samples, the observed transmission was subtracted from the minimum value and then compared to the 100% aggregation value to determine the percentage aggregation. IC50 values are determined using Excel Fit software.

T1 sequence (Q96RI0 18-385): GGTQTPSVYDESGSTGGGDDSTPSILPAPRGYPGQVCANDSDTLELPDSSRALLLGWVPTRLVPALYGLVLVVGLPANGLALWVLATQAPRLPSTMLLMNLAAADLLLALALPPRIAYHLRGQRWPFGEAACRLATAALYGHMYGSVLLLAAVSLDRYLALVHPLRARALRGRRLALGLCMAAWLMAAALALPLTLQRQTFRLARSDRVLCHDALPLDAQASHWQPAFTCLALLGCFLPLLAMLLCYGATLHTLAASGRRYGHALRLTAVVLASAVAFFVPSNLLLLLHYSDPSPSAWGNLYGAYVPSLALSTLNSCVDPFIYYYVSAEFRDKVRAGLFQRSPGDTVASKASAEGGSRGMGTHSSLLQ

SMILES | EC50 (PAR4 [1]) | IC50 (PAR4 [2])
COc1cc(OCc2csc(Nc3ccc4scnc4c3)n2)c2cc(-c3cn4nc(C)ccc4n3)oc2c1 [Example 281] | 0.6 nM | > 3000 nM
COc1cc(OCc2csc(C3(O)CCC(C(=O)N(C)CC#N)CC3)n2)c2cc(-c3cn4nc(OC)sc4n3)oc2c1 (stereo not drawn) [Example 152, N-(Cyanomethyl)-4-hydroxy-4-(4-(((6-methoxy-2-(2-methoxyimidazo[2,1-b][1,3,4]thiadiazol-6-yl)benzofuran-4-yl)oxy)methyl)thiazol-2-yl)-N-methylcyclohexanecarboxamide] | 0.68 nM | 28 nM
CCC(F)(c1nc(COc2cc(OC)cc3oc(-c4cn5nc(OC)sc5n4)cc23)cs1)C(F)(F)F (stereo not drawn) [Example 139] | 0.41 nM | 26 nM
COc1cc(OCc2csc(-c3ccc(C(=O)N(C)CCC#N)cc3)n2)c2cc(-c3cn4nc(OC)sc4n3)oc2c1 [Example 311] | 0.65 nM | 2 nM
COc1cc(OCc2csc(Br)n2)c2cc(-c3cn4nc(C)ccc4n3)oc2c1 [Example 205, 2-Bromo-4-(((6-methoxy-2-(6-methylimidazo[1,2-b]pyridazin-2-yl)benzofuran-4-yl)oxy)methyl)thiazole] | 3.5 nM | 2380 nM
COc1cc(OCc2csc(N3CCN(c4ccc(C)cn4)CC3)n2)c2cc(-c3cn4nc(C)ccc4n3)oc2c1 [Example 285] | 2.9 nM | 2340 nM
COc1cc(OCc2csc(N3CCC3)n2)c2cc(-c3cn4nc(C)ccc4n3)oc2c1 [Example 257] | 7.5 nM | > 3000 nM
COc1cc(OCc2csc(N3CCC[C@@H]3C)n2)c2cc(-c3cn4nc(C)ccc4n3)oc2c1 [Example 274] | 3.4 nM | > 3000 nM
COc1cc(OCc2csc(N3CCC[C@H]3C)n2)c2cc(-c3cn4nc(C)ccc4n3)oc2c1 [Example 275] | 4.2 nM | 2630 nM
COc1cc(OCc2nc(-c3cccc(CO)c3)sc2C)c2cc(-c3cn4nc(OC)sc4n3)oc2c1 [Example 77] | 1 nM | 1.9 nM
COc1cc(OCc2csc(NCCCN3CCCC3=O)n2)c2cc(-c3cn4nc(C)ccc4n3)oc2c1 [Example 254] | 19 nM | > 3000 nM
COc1cc(OCc2cscn2)c2cc(-c3cn4nc(OC)sc4n3)oc2c1 [Example 34] | 1.2 nM | 2320 nM
COc1cc(OCc2nc(-c3ccc(C(=O)N(C)CC#N)cc3)sc2C)c2cc(-c3cn4nc(OC)sc4n3)oc2c1 [Example 48, N-(Cyanomethyl)-4-(4-(((6-methoxy-2-(2-methoxyimidazo[2,1-b][1,3,4]thiadiazol-6-yl)benzofuran-4-yl)oxy)methyl)-5-methylthiazol-2-yl)-N-methylbenzamide] | 0.51 nM | 1.2 nM
COc1cc(OCc2csc(-c3ccc(C)nc3)n2)c2cc(-c3cn4nc(OC)sc4n3)oc2c1 [Example 74] | 0.56 nM | 0.96 nM
COc1cc(OCc2csc(-c3ccccc3)n2)c2nc(-c3cn4nc(SC)sc4n3)oc2c1 [Example 201, 6-Methoxy-2-(2-(methylthio)imidazo[2,1-b][1,3,4]thiadiazol-6-yl)-4-((2-phenylthiazol-4-yl)methoxy)benzo[d]oxazole] | – | 156 nM
CCc1sc(-c2ccc(C(=O)N(C)C)cc2)nc1COc1cc(OC)cc2oc(-c3cn4nc(OC)sc4n3)cc12 [Example 44, 4-(5-Ethyl-4-(((6-methoxy-2-(2-methoxyimidazo[2,1-b][1,3,4]thiadiazol-6-yl)benzofuran-4-yl)oxy)methyl)thiazol-2-yl)-N,N-dimethylbenzamide] | 0.9 nM | 2 nM
COc1cc(OCc2csc(-c3ccc(Cl)cc3)n2)c2cc(-c3cn4nc(C)ccc4n3)oc2c1 [Example 209, 2-(4-Chlorophenyl)-4-(((6-methoxy-2-(6-methylimidazo[1,2-b]pyridazin-2-yl)benzofuran-4-yl)oxy)methyl)thiazole] | 1.2 nM | 23 nM
COc1cc(OCc2csc(C3(O)CC(C)OC(C)C3)n2)c2cc(-c3cn4nc(OC)sc4n3)oc2c1 (stereo not drawn) [Example 121, 4-(4-(((6-Methoxy-2-(2-methoxyimidazo[2,1-b][1,3,4]thiadiazol-6-yl)benzofuran-4-yl)oxy)methyl)thiazol-2-yl)-2,6-dimethyltetrahydro-2H-pyran-4-ol] | 0.27 nM | 27 nM

SMILES | EC50 (PAR4 [1]) | IC50 (PAR4 [2])
COc1cc(OCc2csc(N3CCC4(CC3)OCCO4)n2)c2cc(-c3cn4nc(OC)sc4n3)oc2c1 [Example 103, 8-(4-(((6-Methoxy-2-(2-methoxyimidazo[2,1-b][1,3,4]thiadiazol-6-yl)benzofuran-4-yl)oxy)methyl)thiazol-2-yl)-1,4-dioxa-8-azaspiro[4.5]decane] | 0.31 nM | 24 nM
COc1cc(OCc2csc(NCCN3CCOCC3)n2)c2cc(-c3cn4nc(C)ccc4n3)oc2c1 [Example 244] | 909 nM | > 3000 nM
COc1cc(OCc2csc(C3(O)CCC(C(=O)N4CCCC4)CC3)n2)c2cc(-c3cn4nc(OC)sc4n3)oc2c1 (stereo not drawn) [Example 151, (4-Hydroxy-4-(4-(((6-methoxy-2-(2-methoxyimidazo[2,1-b][1,3,4]thiadiazol-6-yl)benzofuran-4-yl)oxy)methyl)thiazol-2-yl)cyclohexyl)(pyrrolidin-1-yl)methanone] | 0.84 nM | 26 nM
COc1cc(OCc2csc(-c3ccccc3)n2)c2cc(-c3cn4nc([C@H](C)F)sc4n3)oc2c1 [Example 192, (S)-2-(1-Fluoroethyl)-6-(6-methoxy-4-((2-phenylthiazol-4-yl)methoxy)benzofuran-2-yl)imidazo[2,1-b][1,3,4]thiadiazole] | 1.9 nM | 28 nM
COc1cc(OCc2csc(Nc3cc(C)ccc3F)n2)c2cc(-c3cn4nc(C)ccc4n3)oc2c1 [Example 266] | 16 nM | > 3000 nM
CCC(F)(CC)c1nc(COc2cc(OC)cc3oc(-c4cn5nc(OC)sc5n4)cc23)cs1 [Example 141] | 0.47 nM | 24 nM
COc1cc(OCc2csc(C3(O)CCC4(CC3)OCCO4)n2)c2cc(-c3cn4nc(OC)sc4n3)oc2c1 [Example 126, 8-(4-(((6-Methoxy-2-(2-methoxyimidazo[2,1-b][1,3,4]thiadiazol-6-yl)benzofuran-4-yl)oxy)methyl)-thiazol-2-yl)-1,4-dioxaspiro[4.5]decan-8-ol] | 0.33 nM | 1.9 nM
COc1cc(OCc2csc(C(O)(c3ccccc3)C(F)(F)F)n2)c2cc(-c3cn4nc(OC)sc4n3)oc2c1 (stereo not drawn) [Example 137] | 1.2 nM | 23 nM
COc1cc(OCc2csc(Nc3ccc(F)c(C)n3)n2)c2cc(-c3cn4nc(C)ccc4n3)oc2c1 [Example 282] | 3480 nM | > 3000 nM
COc1cc(OCc2csc(N3CCN(c4cccc(Cl)c4)CC3)n2)c2cc(-c3cn4nc(C)ccc4n3)oc2c1 [Example 268] | 1.7 nM | 2360 nM
COc1cc(OCc2nc(C3(F)CCOCC3)sc2C)c2cc(-c3cn4nc(OC)sc4n3)oc2c1 [Example 125, 6-(4-((2-(4-Fluorotetrahydro-2H-pyran-4-yl)-5-methylthiazol-4-yl)methoxy)-6-methoxybenzofuran-2-yl)-2-methoxyimidazo[2,1-b][1,3,4]-thiadiazole] | – | 5.7 nM
COc1cc(OCc2nc(-c3ccccc3)sc2Cl)c2cc(-c3cn4nc(OC)sc4n3)oc2c1 [Example 85, 6-(4-((5-Chloro-2-phenylthiazol-4-yl)methoxy)-6-methoxybenzofuran-2-yl)-2-methoxyimidazo[2,1-b][1,3,4]thiadiazole] | 1.1 nM | –
COc1nn2cc(-c3cc4c(OCc5csc(-c6cccc(C)c6)n5)cc(Cl)cc4o3)nc2s1 [Example 189, 6-(6-Chloro-4-((2-(m-tolyl)thiazol-4-yl)methoxy)benzofuran-2-yl)-2-methoxyimidazo[2,1-b][1,3,4]thiadiazole] | 1.3 nM | –
COc1cc(OCc2csc(-c3ccno3)n2)c2cc(-c3cn4nc(OC)sc4n3)oc2c1 [Example 116, 5-(4-(((6-Methoxy-2-(2-methoxyimidazo[2,1-b][1,3,4]thiadiazol-6-yl)benzofuran-4-yl)oxy)methyl)thiazol-2-yl)isoxazole] | 0.32 nM | –
CCCN(CC)C(=O)c1ccc(-c2nc(COc3cc(OC)cc4oc(-c5cn6nc(OC)sc6n5)cc34)cs2)cc1 [Example 309] | 0.54 nM | –
COc1cc(OCc2csc(N3CCN(C)CC3)n2)c2cc(-c3cn4nc(C)ccc4n3)oc2c1 [Example 207, 4-(((6-Methoxy-2-(6-methylimidazo[1,2-b]pyridazin-2-yl)benzofuran-4-yl)oxy)methyl)-2-(4-methylpiperazin-1-yl)thiazole] | 7.7 nM | –
CCN(C(=O)c1ccc(-c2nc(COc3cc(OC)cc4oc(-c5cn6nc(OC)sc6n5)cc34)cs2)cc1)C1CC1 [Example 299] | 0.55 nM | –
COc1cc(OCc2csc(N(C)C(C)C)n2)c2cc(-c3cn4nc(C)ccc4n3)oc2c1 [Example 280] | 6.2 nM | –
